As a reminder, the IC50 is the concentration needed to halve the response being measured. The low end stands for higher potency, the high end for lower potency.

Experimental findings from patent US7019007B2 (Syntex (U.S.A.) LLC, priority 2001, dated 2006) are described below.

The test addresses T1, CCR-3 receptor (Homo sapiens, UniProt P51677).
T1 construct: expressed in transfected cells; host or cells: L1.2 (murine pre-B lymphoma line) stably transfected with CCR-3
T1 sequence (P51677 1-355): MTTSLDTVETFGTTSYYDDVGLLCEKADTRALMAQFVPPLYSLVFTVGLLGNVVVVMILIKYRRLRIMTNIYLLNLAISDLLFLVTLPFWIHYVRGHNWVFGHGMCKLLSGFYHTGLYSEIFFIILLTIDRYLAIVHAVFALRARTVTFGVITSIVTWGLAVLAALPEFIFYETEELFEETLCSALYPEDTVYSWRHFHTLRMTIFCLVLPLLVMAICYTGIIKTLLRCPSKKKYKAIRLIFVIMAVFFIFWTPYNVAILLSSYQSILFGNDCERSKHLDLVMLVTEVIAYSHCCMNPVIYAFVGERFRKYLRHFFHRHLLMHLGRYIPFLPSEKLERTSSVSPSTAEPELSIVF
Nature of the test: CCR-3 Receptor Binding Assay - In Vitro (inhibition of 125I eotaxin binding to CCR-3 L1.2 transfectant cells). The conditions noted are these: inhibition of binding of 125I-eotaxin to CCR-3 L1.2 transfectant cells, 1 hour at room temperature. On the procedure: The CCR-3 antagonistic activity of the compounds of the invention was determined by their ability to inhibit the binding of ^125 I eotaxin to CCR-3 L1.2 transfectant cells (see Ponath, P. D. et al., J. Exp. Med., Vol. 183, 2437–2448, (1996)).
The assay was performed in Costar 96-well polypropylene round bottom plates. Test compounds were dissolved in DMSO and then diluted with binding buffer (50 mM HEPES, 1 mM CaCl2, 5 mM MgCl2, 0.5% bovine serum albumin (BSA), 0.02% sodium azide, pH 7.24) such that the final DMSO concentration was 2%. 25 μl of the test solution or only buffer with DMSO (control samples) was added to each well, followed by the addition of 25 μl of ^125I-eotaxin ([…]) (NEX314, New England Nuclear, Boston, Mass.) and 1.5×10^5 of the CCR-3 L1.2 transfected cells in 25 μl binding buffer. The final reaction volume was 75 μl.
After incubating the reaction mixture for 1 hour at room temperature, the reaction was terminated by filtering the reaction mixture through polyethylenimine treated Packard Unifilter GF/C filter plate (Packard, Chicago, Ill.). The filters were washed four times with ice cold wash buffer containing 10 mm HEPES and 0.5M sodium chloride (pH 7.2) and dried at 65° C. for approximately 10 minutes. 25 μl/well of Microscint-20® scintillation fluid (Packard) was added and the radioactivity retained on the filters was determined by using the Packard TopCount®.

`O=C(NC1CCCCC1)N[C@@H]1CCC[C@H]1N1CCC(Cc2ccc(Cl)cc2)CC1` came in with a concentration for half-maximal inhibition (IC50) of 398 nM. In other words, the sub-micromolar range.
As for `C=CCNC(=O)N[C@@H]1CCC[C@H]1N1CCC(Cc2ccc(Cl)cc2)CC1`, the figure is 499 nM.
Regarding `CC(C)NC(=O)N[C@@H]1CCC[C@H]1N1CCC(Cc2ccc(Cl)cc2)CC1`, the IC50 is 885 nM.
The molecule `CCCCNC(=O)N[C@@H]1CCC[C@H]1N1CCC(Cc2ccc(Cl)cc2)CC1` came in with an IC50 of 507 nM.
`CCOC(=O)CCNC(=O)N[C@@H]1CCC[C@H]1N1CCC(Cc2ccc(Cl)cc2)CC1` displayed a half-inhibitory concentration (IC50) of 729 nM.
As for `O=C(N[C@@H]1CCC[C@H]1N1CCC(Cc2ccc(Cl)cc2)CC1)C1CCCCC1` [Cyclohexanecarboxylic acid {(1R,2R)-2-[4-(4-chloro-benzyl)-piperidin-1-yl]-cyclopentyl}-amide], the figure is 2910 nM.
